Results on 19 molecules are retold here after paper PMC6514607, “Synthesis of Chromen-4-One-Oxadiazole Substituted Analogs as Potent β-Glucuronidase Inhibitors” (Molecules, 2019).

As usually defined, the melting point is the temperature of the solid-liquid transition. As to `O=c1cc(-c2ccc(-c3nnc(-c4ccc(Cl)cc4)o3)cc2)oc2ccccc12` [Compound 1, 2-(4-(5-(4-Chlorophenyl)-1,3,4-oxadiazol-2-yl)phenyl)-4H-chromen-4-one], the melting point is 288 to 289 °C. Consider `O=c1cc(-c2ccc(-c3nnc(-c4cccc(Cl)c4)o3)cc2)oc2ccccc12` [Compound 2, 2-(4-(5-(3-Chlorophenyl)-1,3,4-oxadiazol-2-yl)phenyl)-4H-chromen-4-one], for which the melting point lay in the range of 282 to 283 °C.

In turn, `O=c1cc(-c2ccc(-c3nnc(Cc4ccccc4Cl)o3)cc2)oc2ccccc12` [Compound 3, 2-(4-(5-(2-Chlorobenzyl)-1,3,4-oxadiazol-2-yl)phenyl)-4H-chromen-4-one] returned a melting point of 276 to 277 °C. The result for `O=c1cc(-c2ccc(-c3nnc(-c4ccc(F)cc4)o3)cc2)oc2ccccc12` [Compound 4, 2-(4-(5-(4-Fluorophenyl)-1,3,4-oxadiazol-2-yl)phenyl)-4H-chromen-4-one] reads 299 to 300 °C. For `O=c1cc(-c2ccc(-c3nnc(-c4cccc(F)c4)o3)cc2)oc2ccccc12` [Compound 5, 2-(4-(5-(3-Fluorophenyl)-1,3,4-oxadiazol-2-yl)phenyl)-4H-chromen-4-one], the melting point lay in the range of 294 to 295 °C. The result for `O=c1cc(-c2ccc(-c3nnc(-c4ccccc4F)o3)cc2)oc2ccccc12` [Compound 6, 2-(4-(5-(2-Fluorophenyl)-1,3,4-oxadiazol-2-yl)phenyl)-4H-chromen-4-one] reads 291 to 292 °C. `Cc1ccc(-c2nnc(-c3ccc(-c4cc(=O)c5ccccc5o4)cc3)o2)cc1` [Compound 7, 2-(4-(5-(p-Tolyl)-1,3,4-oxadiazol-2-yl)phenyl)-4H-chromen-4-one] gave a melting point of 270 to 271 °C. The result for `Cc1cccc(-c2nnc(-c3ccc(-c4cc(=O)c5ccccc5o4)cc3)o2)c1` [Compound 8, 2-(4-(5-(m-Tolyl)-1,3,4-oxadiazol-2-yl)phenyl)-4H-chromen-4-one] reads 264 to 265 °C.

As for `Cc1ccccc1-c1nnc(-c2ccc(-c3cc(=O)c4ccccc4o3)cc2)o1` [Compound 9, 2-(4-(5-(o-Tolyl)-1,3,4-oxadiazol-2-yl)phenyl)-4H-chromen-4-one], the melting point lay within 260 to 261 °C.

The molecule `O=c1cc(-c2ccc(-c3nnc(-c4ccc([N+](=O)[O-])cc4)o3)cc2)oc2ccccc12` [Compound 10, 2-(4-(5-(4-Nitrophenyl)-1,3,4-oxadiazol-2-yl)phenyl)-4H-chromen-4-one] returned a melting point of 304 to 305 °C. The result for `O=c1cc(-c2ccc(-c3nnc(-c4cccc([N+](=O)[O-])c4)o3)cc2)oc2ccccc12` [Compound 11, 2-(4-(5-(3-Nitrophenyl)-1,3,4-oxadiazol-2-yl)phenyl)-4H-chromen-4-one] reads 296 to 297 °C; that for `O=c1cc(-c2ccc(-c3nnc(-c4ccccc4[N+](=O)[O-])o3)cc2)oc2ccccc12` [Compound 12, 2-(4-(5-(2-Nitrophenyl)-1,3,4-oxadiazol-2-yl)phenyl)-4H-chromen-4-one], 287 to 288 °C; that for `COc1ccc(-c2nnc(-c3ccc(-c4cc(=O)c5ccccc5o4)cc3)o2)cc1` [Compound 13, 2-(4-(5-(4-Methoxyphenyl)-1,3,4-oxadiazol-2-yl)phenyl)-4H-chromen-4-one], 307 to 308 °C.

Take `COc1cccc(-c2nnc(-c3ccc(-c4cc(=O)c5ccccc5o4)cc3)o2)c1` [Compound 14, 2-(4-(5-(3-Methoxyphenyl)-1,3,4-oxadiazol-2-yl)phenyl)-4H-chromen-4-one]: the melting point was 299 to 300 °C. The result for `COc1ccccc1-c1nnc(-c2ccc(-c3cc(=O)c4ccccc4o3)cc2)o1` [Compound 15, 2-(4-(5-(2-Methoxyphenyl)-1,3,4-oxadiazol-2-yl)phenyl)-4H-chromen-4-one] reads 286 to 287 °C. Consider `O=c1cc(-c2ccc(-c3nnc(-c4ccccn4)o3)cc2)oc2ccccc12` [Compound 16, 2-(4-(5-(Pyridin-2-yl)-1,3,4-oxadiazol-2-yl)phenyl)-4H-chromen-4-one], for which the melting point is 270 to 271 °C.

`O=c1cc(-c2ccc(-c3nnc(-c4cccnc4)o3)cc2)oc2ccccc12` [Compound 17, 2-(4-(5-(Pyridin-3-yl)-1,3,4-oxadiazol-2-yl)phenyl)-4H-chromen-4-one] had a melting point of 280 to 281 °C.

Molecule `O=c1cc(-c2ccc(-c3nnc(-c4ccncc4)o3)cc2)oc2ccccc12` [Compound 18, 2-(4-(5-(Pyridin-4-yl)-1,3,4-oxadiazol-2-yl)phenyl)-4H-chromen-4-one] showed a melting point of 288 to 289 °C. The result for `O=c1cc(-c2ccc(-c3nnc(-c4ccccc4)o3)cc2)oc2ccccc12` [Compound 19, 2-(4-(5-Phenyl-1,3,4-oxadiazol-2-yl)phenyl)-4H-chromen-4-one] reads 280 to 281 °C.
